test system: IL-1β release from THP-1 cells; assay: IL-1β Release Assay (Alternate Method), THP-1 cells; format: cell-based, human; details: at 0.3 μM; THP-1 cells, BzATP-stimulated
In short: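 THP-1 cells differentiated 16 h with 100 ng/mL LPS plus 100 ng/mL IFN-γ, reprimed 2 h with 100 ng/mL LPS, pretreated 30 min with compound, then challenged 45 min with 250 uM BzATP (final). Supernatant IL-1β quantified by ELISA; percent inhibition from background-adjusted levels versus untreated cells.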

Row | SMILES | IL-1β % inhibition
1 | O=C(Nc1ncnc2c1CCN(S(=O)(=O)c1ccc3oc(=O)ccc3c1)C2)C12CC3CC(CC(C3)C1)C2 [Compound 505] | + (compound exhibited 0-25% inhibition at 0.3 μM)
2 | O=C(Nc1ncnc2c1CCN(S(=O)(=O)c1ccc(Oc3ccccn3)cc1)C2)C12CC3CC(CC(C3)C1)C2 [Compound 506] | ++++ (compound exhibited 75% or greater inhibition at 0.3 μM)
3 | COc1ccc(Oc2ccc(S(=O)(=O)N3CCc4c(ncnc4NC(=O)C45CC6CC(CC(C6)C4)C5)C3)cc2)cc1 [Compound 509] | +++ (compound exhibited 50-75% inhibition at 0.3 μM)
4 | O=C(Nc1ncnc2c1CCN(S(=O)(=O)c1ccc(Oc3ccc(C(F)(F)F)cc3)cc1)C2)C12CC3CC(CC(C3)C1)C2 [Compound 510] | ++++ (compound exhibited 75% or greater inhibition at 0.3 μM)
5 | COc1ccc(-c2ccc(S(=O)(=O)N3CCc4c(ncnc4NC(=O)C45CC6CC(CC(C6)C4)C5)C3)cc2)cc1 [Compound 512] | ++ (compound exhibited 25-50% inhibition at 0.3 μM)
6 | O=C(Nc1ncnc2c1CCN(S(=O)(=O)c1cc(C(F)(F)F)ccc1Cl)C2)C12CC3CC(CC(C3)C1)C2 [Compound 514] | + (compound exhibited 0-25% inhibition at 0.3 μM)
7 | O=C(Nc1ncnc2c1CCN(S(=O)(=O)Cc1cc(C(F)(F)F)cc(C(F)(F)F)c1)C2)C12CC3CC(CC(C3)C1)C2 [Compound 515] | +++ (compound exhibited 50-75% inhibition at 0.3 μM)
8 | O=C(Nc1ncnc2c1CCN(S(=O)(=O)Cc1ccc(C(F)(F)F)cc1)C2)C12CC3CC(CC(C3)C1)C2 [Compound 516] | ++ (compound exhibited 25-50% inhibition at 0.3 μM)
9 | O=C(Nc1ncnc2c1CCN(S(=O)(=O)Cc1ccc(F)cc1)C2)C12CC3CC(CC(C3)C1)C2 [Compound 517] | ++ (compound exhibited 25-50% inhibition at 0.3 μM)
10 | O=C(Nc1ncnc2c1CCN(S(=O)(=O)Cc1ccc(Cl)c(Cl)c1)C2)C12CC3CC(CC(C3)C1)C2 [Compound 518] | ++++ (compound exhibited 75% or greater inhibition at 0.3 μM)
11 | O=C(Nc1ncnc2c1CCN(S(=O)(=O)Cc1cc(Cl)cc(Cl)c1)C2)C12CC3CC(CC(C3)C1)C2 [Compound 519] | +++ (compound exhibited 50-75% inhibition at 0.3 μM)
12 | O=C(Nc1ncnc2c1CCN(S(=O)(=O)Cc1cccc(C(F)(F)F)c1)C2)C12CC3CC(CC(C3)C1)C2 [Compound 520] | ++ (compound exhibited 25-50% inhibition at 0.3 μM)
13 | O=C(Nc1ncnc2c1CCN(S(=O)(=O)Cc1ccc(Cl)cc1)C2)C12CC3CC(CC(C3)C1)C2 [Compound 522] | +++ (compound exhibited 50-75% inhibition at 0.3 μM)
14 | O=C(Nc1ncnc2c1CCN(S(=O)(=O)c1ccc(OC(F)F)cc1)C2)C12CC3CC(CC(C3)C1)C2 [Compound 523] | + (compound exhibited 0-25% inhibition at 0.3 μM)
15 | O=C(Nc1ncnc2c1CCN(S(=O)(=O)c1ccc(Oc3ccccc3)cc1)C2)C12CC3CC(CC(C3)C1)C2 [Compound 524] | ++++ (compound exhibited 75% or greater inhibition at 0.3 μM)
16 | O=C(Nc1ncnc2c1CCN(S(=O)(=O)c1ccccc1Cl)C2)C12CC3CC(CC(C3)C1)C2 [Compound 525] | + (compound exhibited 0-25% inhibition at 0.3 μM)
17 | O=C(Nc1ncnc2c1CCN(S(=O)(=O)c1ccc(F)c(Cl)c1)C2)C12CC3CC(CC(C3)C1)C2 [Compound 526] | ++ (compound exhibited 25-50% inhibition at 0.3 μM)
18 | O=C(Nc1ncnc2c1CCN(S(=O)(=O)c1ccccc1-c1ccccc1)C2)C12CC3CC(CC(C3)C1)C2 [Compound 527] | +++ (compound exhibited 50-75% inhibition at 0.3 μM)
19 | O=C(Nc1ncnc2c1CCN(S(=O)(=O)c1ccccc1C(F)(F)F)C2)C12CC3CC(CC(C3)C1)C2 [Compound 528] | ++ (compound exhibited 25-50% inhibition at 0.3 μM)
20 | Cc1nn(C)c(C)c1S(=O)(=O)N1CCc2c(ncnc2NC(=O)C23CC4CC(CC(C4)C2)C3)C1 [Compound 531] | ++ (compound exhibited 25-50% inhibition at 0.3 μM)
21 | O=C(Nc1ncnc2c1CCN(S(=O)(=O)c1ccccc1OC(F)(F)F)C2)C12CC3CC(CC(C3)C1)C2 [Compound 532] | + (compound exhibited 0-25% inhibition at 0.3 μM)
22 | Cc1ccccc1S(=O)(=O)N1CCc2c(ncnc2NC(=O)C23CC4CC(CC(C4)C2)C3)C1 [Compound 533] | +++ (compound exhibited 50-75% inhibition at 0.3 μM)
23 | O=C(Nc1ncnc2c1CCN(S(=O)(=O)c1ccc3c(c1)OCCO3)C2)C12CC3CC(CC(C3)C1)C2 [Compound 534] | +++ (compound exhibited 50-75% inhibition at 0.3 μM)
24 | O=C(Nc1ncnc2c1CCN(S(=O)(=O)c1ccc(C(F)(F)F)cc1)C2)C12CC3CC(CC(C3)C1)C2 [Compound 535] | ++ (compound exhibited 25-50% inhibition at 0.3 μM)
25 | O=C(Nc1ncnc2c1CCN(S(=O)(=O)c1ccc(Cl)cc1F)C2)C12CC3CC(CC(C3)C1)C2 [Compound 536] | ++ (compound exhibited 25-50% inhibition at 0.3 μM)
26 | O=C(Nc1ncnc2c1CCN(S(=O)(=O)c1cc(F)ccc1F)C2)C12CC3CC(CC(C3)C1)C2 [Compound 537] | ++ (compound exhibited 25-50% inhibition at 0.3 μM)

Row | SMILES | IL-1β % inhibition
27 | O=C(Nc1ncnc2c1CCN(S(=O)(=O)c1cc(Cl)ccc1Cl)C2)C12CC3CC(CC(C3)C1)C2 [Compound 538] | ++ (compound exhibited 25-50% inhibition at 0.3 μM)
28 | O=C(Nc1ncnc2c1CCN(S(=O)(=O)c1cc(Cl)ccc1F)C2)C12CC3CC(CC(C3)C1)C2 [Compound 539] | ++ (compound exhibited 25-50% inhibition at 0.3 μM)
29 | O=C(Nc1ncnc2c1CCN(S(=O)(=O)c1c(F)cccc1F)C2)C12CC3CC(CC(C3)C1)C2 [Compound 540] | + (compound exhibited 0-25% inhibition at 0.3 μM)
30 | Cc1ccc(S(=O)(=O)N2CCc3c(ncnc3NC(=O)C34CC5CC(CC(C5)C3)C4)C2)cc1Cl [Compound 541] | ++++ (compound exhibited 75% or greater inhibition at 0.3 μM)
31 | O=C(Nc1ncnc2c1CCN(S(=O)(=O)c1cc(Cl)cc(Cl)c1)C2)C12CC3CC(CC(C3)C1)C2 [Compound 542] | + (compound exhibited 0-25% inhibition at 0.3 μM)
32 | O=C(Nc1ncnc2c1CCN(S(=O)(=O)c1ccc(F)cc1F)C2)C12CC3CC(CC(C3)C1)C2 [Compound 543] | ++ (compound exhibited 25-50% inhibition at 0.3 μM)
33 | O=C(Nc1ncnc2c1CCN(S(=O)(=O)c1ccc(F)cc1Cl)C2)C12CC3CC(CC(C3)C1)C2 [Compound 545] | ++ (compound exhibited 25-50% inhibition at 0.3 μM)
34 | Cc1ccc(F)cc1S(=O)(=O)N1CCc2c(ncnc2NC(=O)C23CC4CC(CC(C4)C2)C3)C1 [Compound 546] | + (compound exhibited 0-25% inhibition at 0.3 μM)
35 | COc1ccc(C)cc1S(=O)(=O)N1CCc2c(ncnc2NC(=O)C23CC4CC(CC(C4)C2)C3)C1 [Compound 548] | + (compound exhibited 0-25% inhibition at 0.3 μM)
36 | COc1ccc(OC)c(S(=O)(=O)N2CCc3c(ncnc3NC(=O)C34CC5CC(CC(C5)C3)C4)C2)c1 [Compound 549] | ++ (compound exhibited 25-50% inhibition at 0.3 μM)
37 | Cc1cc(C)cc(S(=O)(=O)N2CCc3c(ncnc3NC(=O)C34CC5CC(CC(C5)C3)C4)C2)c1 [Compound 550] | + (compound exhibited 0-25% inhibition at 0.3 μM)
38 | CC(CCN1CCc2c(ncnc2NC(=O)C23CC4CC(CC(C4)C2)C3)C1)CC(C)(C)C (stereo not shown) [Compound 552] | ++++ (compound exhibited 75% or greater inhibition at 0.3 μM)
39 | O=C(Nc1ncnc2c1CCN(CC(c1ccccc1)c1ccccc1)C2)C12CC3CC(CC(C3)C1)C2 [Compound 553] | ++ (compound exhibited 25-50% inhibition at 0.3 μM)
40 | CC(CN1CCc2c(ncnc2NC(=O)C23CC4CC(CC(C4)C2)C3)C1)c1ccccc1 (stereo not shown) [Compound 554] | ++++ (compound exhibited 75% or greater inhibition at 0.3 μM)
41 | CCCN1CCc2c(ncnc2NC(=O)C23CC4CC(CC(C4)C2)C3)C1 [Compound 555] | + (compound exhibited 0-25% inhibition at 0.3 μM)
42 | O=C(Nc1ncnc2c1CCN(CC1CCCCC1)C2)C12CC3CC(CC(C3)C1)C2 [Compound 556] | + (compound exhibited 0-25% inhibition at 0.3 μM)
43 | O=C(Nc1ncnc2c1CCN(CC1CC1)C2)C12CC3CC(CC(C3)C1)C2 [Compound 557] | + (compound exhibited 0-25% inhibition at 0.3 μM)
44 | CCCCCN1CCc2c(ncnc2NC(=O)C23CC4CC(CC(C4)C2)C3)C1 [Compound 558] | ++ (compound exhibited 25-50% inhibition at 0.3 μM)
45 | O=C(Nc1ncnc2c1CCN(CCCc1ccccc1)C2)C12CC3CC(CC(C3)C1)C2 [Compound 559] | ++ (compound exhibited 25-50% inhibition at 0.3 μM)
46 | O=C(Nc1ncnc2c1CCN(Cc1cccnc1)C2)C12CC3CC(CC(C3)C1)C2 [Compound 560] | ++ (compound exhibited 25-50% inhibition at 0.3 μM)
47 | COc1ccc(CN2CCc3c(ncnc3NC(=O)C34CC5CC(CC(C5)C3)C4)C2)cc1 [Compound 562] | + (compound exhibited 0-25% inhibition at 0.3 μM)
48 | O=C(Nc1ncnc2c1CCN(Cc1ccc3c(c1)OCO3)C2)C12CC3CC(CC(C3)C1)C2 [Compound 564] | ++++ (compound exhibited 75% or greater inhibition at 0.3 μM)
49 | O=C(Nc1ncnc2c1CCN(Cc1ccc3ccccc3c1)C2)C12CC3CC(CC(C3)C1)C2 [Compound 565] | ++++ (compound exhibited 75% or greater inhibition at 0.3 μM)
50 | COc1ccc(CN2CCc3c(ncnc3NC(=O)C34CC5CC(CC(C5)C3)C4)C2)cc1OC [Compound 566] | + (compound exhibited 0-25% inhibition at 0.3 μM)
51 | Cc1ccc2occ(CN3CCc4c(ncnc4NC(=O)C45CC6CC(CC(C6)C4)C5)C3)c(=O)c2c1 [Compound 567] | ++ (compound exhibited 25-50% inhibition at 0.3 μM)
52 | O=C(Nc1ncnc2c1CCN(Cc1cccc(Oc3ccccc3)c1)C2)C12CC3CC(CC(C3)C1)C2 [Compound 568] | + (compound exhibited 0-25% inhibition at 0.3 μM)

Source: patent publication US7297700B2, “Bicycloheteroaryl compounds as P2X7 modulators and uses thereof” (Renovis, Inc., priority 2005, dated 2007)
